Experimental data reported in patent US9006433B2, “Substituted pyrimidines” (Merck Sharp & Dohme Corp., priority 2010, dated 2015).

Molecular target: T1, PHD2 (Homo sapiens, UniProt Q9GZT9)
T1 construct: FLAG-tagged full length PHD2 expressed in and purified from baculovirus-infected Sf9 cells; FLAG; made in house; host or cells: baculovirus-infected Sf9 cells
Test: PHD2 inhibition assay (time resolved fluorescence, HIF-1α peptide hydroxylation / VHL complex detection)
Type: biochemical
Conditions: FLAG-tagged full length PHD2; 0.2 μM 2-oxoglutarate, 0.5 μM HIF-1α peptide
Procedure: To each well of a 96-well plate was added 1 μL of test compound in DMSO and 20 μl of assay buffer (50 mM Iris pH 7.4/0.01% Tween-20/0.1 mg/ml bovine serum albumin/10 μM ferrous sulfate/1 mM sodium ascorbate/20 μg/ml catalase) containing 0.15 μg/ml FLAG-tagged full length PHD2 expressed in and purified from baculovirus-infected Sf9 cells. After a 30 min preincubation at room temperature, the enzymatic reactions were initiated by the addition of […] of substrates (final concentrations of 0.2 μM 2-oxoglutarate and 0.5 μM HIF-1α peptide biotinyl-DLDLEMLAPYIPMDDDFQL (SEQ ID NO:1)). After 2 hr at room temperature, the reactions were terminated and signals were developed by the addition of a 25 μL quench/detection mix to a final concentration of 1 mM ortho-phenanthroline, 0.1 mM EDTA, 0.5 nM anti-(His)6 LANCE reagent (Perkin-Elmer Life Sciences), 100 nM AF647-labeled streptavidin (Invitrogen), and 2 μg/ml (His)-6-VHL complex (S. Tan(2001) Protein Expr. Purif. 21, 224-234). The ratio of time resolved fluorescence signals at 665 and 620 nm was determined, and percent inhibition was calculated relative to an uninhibited control sample run in parallel.

T1 sequence (Q9GZT9 whole entry, species assumed): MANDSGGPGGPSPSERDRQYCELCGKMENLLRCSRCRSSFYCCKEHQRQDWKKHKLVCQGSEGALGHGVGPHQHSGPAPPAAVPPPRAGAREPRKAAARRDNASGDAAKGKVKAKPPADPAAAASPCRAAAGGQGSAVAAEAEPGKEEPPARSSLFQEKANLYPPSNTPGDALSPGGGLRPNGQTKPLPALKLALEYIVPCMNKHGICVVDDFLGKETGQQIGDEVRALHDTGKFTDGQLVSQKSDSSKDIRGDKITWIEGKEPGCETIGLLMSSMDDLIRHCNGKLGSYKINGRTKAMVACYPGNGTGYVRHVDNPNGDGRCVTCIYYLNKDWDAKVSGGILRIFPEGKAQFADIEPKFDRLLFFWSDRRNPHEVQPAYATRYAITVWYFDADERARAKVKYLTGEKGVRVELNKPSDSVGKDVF

`COc1cccc(CC(=O)Nc2cnc(-n3cccn3)nc2O)c1` [Compound 3-31, N-(4-hydroxy-2-(1H-pyrazol-1-yl)pyrimidin-5-yl)-2-(3-methoxyphenyl)acetamide] and `O=C(Cc1ccc(Cl)cc1)Nc1cnc(-n2cccn2)nc1O` [Compound 3-25, 2-(4-chlorophenyl)-N-(4-hydroxy-2-(1H-pyrazol-1-yl)pyrimidin-5-yl)acetamide] fall in the same range of IC50: 0.0005 to 0.02 µM for the first, 0.0005 to 0.02 µM for the second.

`O=C(Cc1ccc2c(c1)OCO2)Nc1cnc(-n2cccn2)nc1O` [Compound 3-40, 2-(benzo[d][1,3]dioxol-5-yl)-N-(4-hydroxy-2-(1H-pyrazol-1-yl)pyrimidin-5-yl)acetamide] and `O=C(Cc1ccccc1Cl)Nc1cnc(-n2cccn2)nc1O` [Compound 3-23, 2-(2-chlorophenyl)-N-(4-hydroxy-2-(1H-pyrazol-1-yl)pyrimidin-5-yl)acetamide] fall in the same range of IC50: 0.0005 to 0.02 µM for the first, 0.0005 to 0.02 µM for the second.

`COc1ccc(OC(=O)Nc2cnc(-n3cccn3)nc2O)cc1` [Compound 5-14, 4-methoxyphenyl 4-hydroxy-2-(1H-pyrazol-1-yl)pyrimidin-5-ylcarbamate] and `O=C(Nc1cnc(-n2cccn2)nc1O)c1ccc(C(F)(F)F)cc1` [Compound 3-5, 4-(trifluoromethyl)-N-(4-hydroxy-2-(1H-pyrazol-1-yl)pyrimidin-5-yl)benzamide] fall in the same range of IC50: 0.02 to 0.1 µM for the first, 0.02 to 0.1 µM for the second.

Compared with `O=S(=O)(Cc1ccc(C(F)(F)F)cc1)Nc1cnc(-n2cccn2)nc1O` [Compound 4-4, N-[4-hydroxy-2-(1H-pyrazol-1-yl)pyrimidin-5-yl]-1-[4-(trifluoromethyl)phenyl]methanesulfonamide], `O=C(Nc1cnc(-n2cccn2)nc1O)c1ccccc1C(F)(F)F` [Compound 3-10, 2-(trifluoromethyl)-N-(4-hydroxy-2-(1H-pyrazol-1-yl)pyrimidin-5-yl)benzamide] is lower in IC50: 0.1 to 10 µM for the first, 0.0005 to 0.02 µM for the second.

First: O=C(Nc1ccccc1)Nc1cnc(-n2cccn2)nc1O [Compound 5-1, 1-(4-hydroxy-2-(1H-pyrazol-1-yl)pyrimidin-5-yl)-3-phenylurea]
Second: CCC(C(=O)Nc1cnc(-n2cccn2)nc1O)c1ccccc1 (stereo not shown) [Compound 3-34, N-(4-hydroxy-2-(1H-pyrazol-1-yl)pyrimidin-5-yl)-2-phenylbutanamide]
The IC50 of the first is higher: 0.1 to 10 µM for the first, 0.0005 to 0.02 µM for the second.

Compared with `O=C(Nc1cnc(-n2cccn2)nc1O)C1Cc2ccccc2C1` [Compound 3-55, 2,3-dihydro-N-(4-hydroxy-2-(1H-pyrazol-1-yl)pyrimidin-5-yl)-1H-indene-2-carboxamide], `O=C(Nc1cnc(-n2cccn2)nc1O)C1CCc2ccccc2C1` (stereo not shown) [Compound 3-54, 1,2,3,4-tetrahydro-N-(4-hydroxy-2-(1H-pyrazol-1-yl)pyrimidin-5-yl)naphthalene-2-carboxamide] is higher in IC50: 0.0005 to 0.02 µM for the first, 0.02 to 0.1 µM for the second.

First: O=C(Nc1cnc(-n2cccn2)nc1O)c1ccc(-c2ccccc2)cc1 [Compound 3-19, N-[4-hydroxy-2-(1H-pyrazol-1-yl)pyrimidin-5-yl]biphenyl-4-carboxamide]
Second: O=C(Nc1cnc(-n2cccn2)nc1O)c1cccc(-c2ccccc2)c1 [Compound 3-18, N-[4-hydroxy-2-(1H-pyrazol-1-yl)pyrimidin-5-yl]biphenyl-3-carboxamide]
The IC50 of the first is lower: 0.0005 to 0.02 µM for the first, 0.02 to 0.1 µM for the second.

First: O=C(Nc1cnc(-n2cccn2)nc1O)c1ccccc1-c1ccccc1 [Compound 3-17, N-[4-hydroxy-2-(1H-pyrazol-1-yl)pyrimidin-5-yl]biphenyl-2-carboxamide]
Second: O=C(Nc1cnc(-n2cccn2)nc1O)c1ccccc1Cl [Compound 3-1, 2-chloro-N-(4-hydroxy-2-(1H-pyrazol-1-yl)pyrimidin-5-yl)benzamide]
The IC50 of the first is higher: 0.02 to 0.1 µM for the first, 0.0005 to 0.02 µM for the second. The second is the more potent here.

`O=C(Nc1cnc(-n2cccn2)nc1O)c1ccc(Oc2ccccc2)cc1` [Compound 3-22, N-(4-hydroxy-2-(1H-pyrazol-1-yl)pyrimidin-5-yl)-4-phenoxybenzamide] and `O=C(Nc1cnc(-n2cccn2)nc1O)c1cccc(Oc2ccccc2)c1` [Compound 3-21, N-(4-hydroxy-2-(1H-pyrazol-1-yl)pyrimidin-5-yl)-3-phenoxybenzamide] fall in the same range of IC50: 0.0005 to 0.02 µM for the first, 0.0005 to 0.02 µM for the second.

`CS(=O)(=O)c1cccc(C(=O)Nc2cnc(-n3cccn3)nc2O)c1` [Compound 3-15, N-(4-hydroxy-2-(1H-pyrazol-1-yl)pyrimidin-5-yl)-3-(methylsulfonyl)benzamide] and `N#Cc1cccc(C(=O)Nc2cnc(-n3cccn3)nc2O)c1` [Compound 3-8, 3-cyano-N-(4-hydroxy-2-(1H-pyrazol-1-yl)pyrimidin-5-yl)benzamide] fall in the same range of IC50: 0.02 to 0.1 µM for the first, 0.02 to 0.1 µM for the second.

`Oc1nc(-n2cccn2)ncc1NC(=S)NC(c1ccccc1)c1ccccc1` [Compound 6-1, 1-benzhydryl-3-(4-hydroxy-2-(1H-pyrazol-1-yl)pyrimidin-5-yl)thiourea] and `O=C(Nc1cnc(-n2cccn2)nc1O)N(c1ccccc1)c1ccccc1` [Compound 5-7, 3-(4-hydroxy-2-(1H-pyrazol-1-yl)pyrimidin-5-yl)-1,1-diphenylurea] fall in the same range of IC50: 0.0005 to 0.02 µM for the first, 0.0005 to 0.02 µM for the second.

`O=C(Nc1cnc(-n2cccn2)nc1O)OC1CCCC1` [Compound 5-11, cyclopentyl 4-hydroxy-2-(1H-pyrazol-1-yl)pyrimidin-5-ylcarbamate] and `O=C(Nc1cnc(-n2cccn2)nc1O)OC1CCCCC1` [Compound 5-10, cyclohexyl 4-hydroxy-2-(1H-pyrazol-1-yl)pyrimidin-5-ylcarbamate] fall in the same range of IC50: 0.02 to 0.1 µM for the first, 0.02 to 0.1 µM for the second.

First: O=C(Nc1cnc(-c2ccccn2)nc1O)C(c1ccccc1)c1ccccc1 [Compound 10-1, N-(4-hydroxy-2-(pyridin-2-yl)pyrimidin-5-yl)-2,2-diphenylacetamide]
Second: O=C(Cc1ccc(-c2ccccc2)cc1)Nc1cnc(-n2cccn2)nc1O [Compound 3-42, 2-(biphenyl-4-yl)-N-(4-hydroxy-2-(1H-pyrazol-1-yl)pyrimidin-5-yl)acetamide]
The IC50 of the first is higher: 0.02 to 0.1 µM for the first, 0.0005 to 0.02 µM for the second.

`O=C(Nc1cnc(-n2cccn2)nc1O)OCCc1ccccc1` [Compound 5-16, phenethyl 4-hydroxy-2-(1H-pyrazol-1-yl)pyrimidin-5-ylcarbamate] and `O=C(CCc1ccccc1)Nc1cnc(-n2cccn2)nc1O` [Compound 3-44, N-(4-hydroxy-2-(1H-pyrazol-1-yl)pyrimidin-5-yl)-3-phenylpropanamide] fall in the same range of IC50: 0.02 to 0.1 µM for the first, 0.02 to 0.1 µM for the second.

`O=C(Nc1cnc(-n2cccn2)nc1O)C1CCCCC1` [Compound 3-46, N-(4-hydroxy-2-(1H-pyrazol-1-yl)pyrimidin-5-yl)cyclohexanecarboxamide] and `CC(C)(C)OC(=O)N1CCC(CC(=O)Nc2cnc(-n3cccn3)nc2O)CC1` [Compound 3-50, tert-butyl4-((4-hydroxy-2-(1H-pyrazol-1-yl)pyrimidin-5-ylcarbamoyl)methyl)piperidine-1-carboxylate] fall in the same range of IC50: 0.02 to 0.1 µM for the first, 0.02 to 0.1 µM for the second.

`CCC(C)C(C(=O)Nc1cnc(-n2cccn2)nc1O)c1ccccc1` (stereo not shown) [Compound 3-36, N-(4-hydroxy-2-(1H-pyrazol-1-yl)pyrimidin-5-yl)-3-methyl-2-phenylpentanamide] and `O=C(CCCc1ccccc1)Nc1cnc(-n2cccn2)nc1O` [Compound 3-45, N-(4-hydroxy-2-(1H-pyrazol-1-yl)pyrimidin-5-yl)-4-phenylbutanamide] fall in the same range of IC50: 0.0005 to 0.02 µM for the first, 0.0005 to 0.02 µM for the second.

First: O=C(Cc1cccc2ccccc12)Nc1cnc(-n2cccn2)nc1O [Compound 3-39, N-(4-hydroxy-2-(1H-pyrazol-1-yl)pyrimidin-5-yl)-2-(naphthalen-1-yl)acetamide]
Second: Oc1nc(-n2cccn2)ncc1-c1ccccc1 [Compound 11-3, 5-phenyl-2-(1H-pyrazol-1-yl)pyrimidin-4-ol]
The IC50 of the first is lower: 0.0005 to 0.02 µM for the first, 0.1 to 10 µM for the second.
